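Where inhibition never reached the appropriate level, the endpoint shown equals the highest concentration tested. Otherwise, values were interpolated linearly from a five-concentration, 48-hour dose response in 96-well plates. GI50 is the concentration that inhibits growth by half.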 Calls of active or inactive are those of the source. No stated cut-off is given here; in the data, active = GI50 up to about 1.1 µM and inactive = higher.

Consider 4 compounds from ChEMBL document CHEMBL1201862, “PubChem BioAssay data set” (2004).

Among the test systems are UO-31; NCI-H522; SK-OV-3; A498; HL-60; MDA-MB-231; U-251; TK-10; NCI-H226; SK-MEL-2; HT-29; EKVX; HOP-92; SN12C; T47D; IGROV-1; NCI/ADR-RES; RXF 393; Hs-578T; NCI-H460.
Common to all, as to test: growth of human tumour cells (NCI), 48 h

For the compound `CC[C@@]1(O)C(=O)OCc2c1cc1n(c2=O)Cc2c-1nc1ccccc1c2/C=N\NC(=O)C(N)CS` (stereo not given in full), the GI50 in the assay on UO-31 is 0.989 µM (active); in the assay on NCI-H522 it was 0.883 µM (active); in the assay on SK-OV-3, 1.91 µM (inactive); in the assay with A498, 2.55 µM (inactive); in the assay on HL-60, 0.346 µM (active); in the assay on MDA-MB-231, 78.9 µM (inactive). For the same compound, the GI50 in the assay on U-251 was 0.281 µM (active); with TK-10 it was > 84.9 µM (inactive); in the assay on NCI-H226, 1.66 µM (inactive); in the assay on SK-MEL-2, 46.3 µM (inactive); in the assay on HT-29, 9.29 µM (inactive); in the assay with EKVX, 47 µM (inactive). Further, the GI50 in the assay on HOP-92 was 3.13 µM (inactive); in the assay on SN12C, 0.116 µM (active); with T47D, 0.1 µM (active); in the assay with IGROV-1, 6.7 µM (inactive); with NCI/ADR-RES, 1.71 µM (inactive); in the assay with RXF 393 it was 1.8 µM (inactive). Also, the values for the GI50 in the assay with Hs-578T and with NCI-H460 were > 100 µM (inactive) and 0.363 µM (active), respectively.
For `COc1ccc(S(=O)(=O)N/N=C/C(=O)O)cc1`, the GI50 is 631 µM (inactive) in the assay with UO-31; 275 µM (inactive) with NCI-H522; 971 µM (inactive) in the assay on SK-OV-3; 495 µM (inactive) in the assay on A498; 185 µM (inactive) in the assay with HL-60; 822 µM (inactive) in the assay on MDA-MB-231. For the same compound, the GI50 was 499 µM (inactive) in the assay on U-251; 832 µM (inactive) with TK-10; 624 µM (inactive) in the assay with NCI-H226; 428 µM (inactive) in the assay with SK-MEL-2; 336 µM (inactive) in the assay with HT-29; 1160 µM (inactive) with EKVX. The GI50 was 364 µM (inactive) in the assay with HOP-92; 475 µM (inactive) with SN12C; 695 µM (inactive) with T47D; 427 µM (inactive) with IGROV-1; 490 µM (inactive) in the assay with NCI/ADR-RES; 410 µM (inactive) in the assay on RXF 393. Besides, the GI50 in the assay on Hs-578T was 404 µM (inactive); in the assay with NCI-H460, 359 µM (inactive).
For `O=C1c2c(ccc3c2CCCC3)CC12Cc1ccccc1C2`, the GI50 in the assay on UO-31 was 5.28 µM (inactive); in the assay on NCI-H522, 12.8 µM (inactive); with SK-OV-3, 30.6 µM (inactive); in the assay with A498, 11.1 µM (inactive); in the assay with HL-60 it was 11.2 µM (inactive); in the assay on MDA-MB-231, 18.1 µM (inactive). Besides, the GI50 in the assay on U-251 is 27.2 µM (inactive); in the assay with TK-10, 28 µM (inactive); in the assay with NCI-H226, 9.53 µM (inactive); in the assay on SK-MEL-2, 17.4 µM (inactive); in the assay on HT-29, 5.96 µM (inactive); in the assay on EKVX it was 20 µM (inactive). In addition, the GI50 is 12.7 µM (inactive) in the assay on HOP-92; 21.8 µM (inactive) in the assay with SN12C; 17.9 µM (inactive) with T47D; 30.2 µM (inactive) in the assay on IGROV-1; 15.8 µM (inactive) with NCI/ADR-RES; 11 µM (inactive) in the assay on RXF 393. Also, the GI50 in the assay on Hs-578T is 22.5 µM (inactive); with NCI-H460 it was 4.93 µM (inactive).
Take `O=S(=O)(N=S(c1ccc(Cl)cc1)c1ccc(Cl)cc1)c1ccccc1`: the GI50 in the assay on UO-31 is 45.1 µM (inactive); in the assay on NCI-H522, 70.3 µM (inactive); with SK-OV-3, > 100 µM (inactive); in the assay with A498 it was 19.7 µM (inactive); with HL-60, 27.5 µM (inactive); in the assay with MDA-MB-231, > 100 µM (inactive). In addition, the GI50 was > 100 µM (inactive) in the assay on U-251; > 100 µM (inactive) in the assay with TK-10; > 100 µM (inactive) with NCI-H226; > 100 µM (inactive) with SK-MEL-2; 88.7 µM (inactive) in the assay with HT-29; > 100 µM (inactive) in the assay with EKVX. Further, the GI50 in the assay on HOP-92 is > 100 µM (inactive); with SN12C, 9.95 µM (inactive); in the assay with T47D, 47.5 µM (inactive); in the assay with IGROV-1, > 100 µM (inactive); in the assay on NCI/ADR-RES, 63 µM (inactive); with RXF 393, 65.3 µM (inactive). Also, the values for the GI50 with Hs-578T and in the assay with NCI-H460 were 56.9 µM (inactive) and 88.7 µM (inactive), respectively.
